Structures can show the parent of a compound that is named as a salt.
Target: T1, Axl (Homo sapiens, UniProt P30530)
T1 construct: endogenous in cells; host or cells: HeLa cells
T1 sequence (P30530 26-894): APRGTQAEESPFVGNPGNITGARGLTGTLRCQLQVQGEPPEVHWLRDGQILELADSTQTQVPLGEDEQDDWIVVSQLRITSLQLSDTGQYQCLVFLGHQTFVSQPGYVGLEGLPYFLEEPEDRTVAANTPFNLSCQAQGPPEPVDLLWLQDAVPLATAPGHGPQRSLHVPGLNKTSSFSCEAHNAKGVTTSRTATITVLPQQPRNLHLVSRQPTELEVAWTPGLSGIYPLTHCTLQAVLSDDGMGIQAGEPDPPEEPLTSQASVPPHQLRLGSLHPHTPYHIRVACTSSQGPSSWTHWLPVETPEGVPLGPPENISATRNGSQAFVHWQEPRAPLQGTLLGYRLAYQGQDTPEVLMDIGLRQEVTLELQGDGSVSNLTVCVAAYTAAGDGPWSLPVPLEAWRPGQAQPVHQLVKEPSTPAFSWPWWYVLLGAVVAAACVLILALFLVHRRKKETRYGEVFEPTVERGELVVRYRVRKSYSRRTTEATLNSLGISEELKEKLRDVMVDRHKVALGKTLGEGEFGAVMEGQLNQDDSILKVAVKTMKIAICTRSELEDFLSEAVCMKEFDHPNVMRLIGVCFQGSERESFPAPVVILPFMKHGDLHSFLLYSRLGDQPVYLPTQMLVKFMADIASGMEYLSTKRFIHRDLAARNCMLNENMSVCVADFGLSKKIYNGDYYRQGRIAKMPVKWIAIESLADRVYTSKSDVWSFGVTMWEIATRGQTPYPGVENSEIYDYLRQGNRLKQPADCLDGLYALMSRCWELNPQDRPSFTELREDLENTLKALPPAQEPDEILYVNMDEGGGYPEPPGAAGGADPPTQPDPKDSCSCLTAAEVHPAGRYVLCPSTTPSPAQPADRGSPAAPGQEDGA
Test: Phospho-Akt in-cell Western assay (inhibition of Axl activity)
Format: cell-based
Details: Table 7; Hela cells, Axl antibody cross-linking stimulation, phospho-Akt chemiluminescence
Procedure: The compounds of the invention were tested in the following assay for their ability to inhibit Axl activity.
Phospho-Akt in-Cell Western Assay
• Cell culture plate: 96 well assay plate (Corning 3610), white, clear bottom, tissue-culture treated. • Cells: Hela cells. • Starvation medium: For Axl stimulation: 0.5% FCS (fetal calf serum) in DMEM, plus Axl/Fc (extracellular domain of AXL fused to immunoglobulin Fc region) (R&D, 154-AL) 500 ng/mL. • For EGF (epidermal growth factor) stimulation: 0.5% FCS in DMEM (Dulbecco's modified Eagles medium). • Poly-L-Lysine 0.01% solution (the working solution): 10 μg/ml, dilute In PBS (phosphate buffered saline). • Axl antibody cross-linking: • 1st: Mouse anti-Axl (R&D, MAB154). • 2nd: Biotin-SP-conjugated AffiniPure goat anti-mouse IgG (H+L) (Jackson ImmunoResearch #115-065-003). • Fixing buffer: 4% formaldehyde in PBS. • Wash buffer: 0.1% TritonX-100 in PBS. • Quenching buffer: 3% H2O2, 0.1% Azide in wash buffer, Azide and hydrogen peroxide (H2O2) are added fresh. • Blocking buffer: 5% BSA in TBST (tris buffered saline plus 0.1% Tween 20). • Primary antibody: Rabbit anti-human Phospho-Akt antibody (Cell Signaling 9271): 1×250 diluted in blocking buffer. • Secondary antibody: HRP (horse radish peroxidase)-conjugated Goat anti-Rabbit secondary, stock solution: Jackson ImmunoResearch (Goat anti-Rabbit HRP, #111-035-144) 1:1 diluted in glycerol, store at −20° C. The working solution: 1×2000 dilution of stock in blocking buffer. • Chemiluminescent working solution (Pierce, 37030): SuperSignal ELISA (enzyme linked immunosorbant assay) Pico Chemiluminescent substrate. • Crystal Violet solution: Stock: 2.5% Crystal violet in methanol, filtered and kept at ambient temperature. The working solution: dilute the stock 1:20 with PBS immediately before use. • 10% SDS: working solution: 5% SDS (sodium dodecylsulfate), diluted in PBS Methods: Day 1:
A 96 well TC (tissue culture treated) plate was coated with 10 μg/mL poly-L-Lysine at 37° C. for 30 min, washed twice with PBS, and air-dried for 5 minutes before cells were added. Hela cells were seeded at 10,000 cells/well and the cells were starved in 100 μL starvation medium containing Axl/Fc for 24 hrs.
The cells were pre-treated with test compounds by adding 100 μL of 2× test compound to the starvation medium on the cells. The cells were incubated at 37° C. for 1 hr before stimulation.
The cells were stimulated by Axl-antibody cross-linking as follows: A 5×1st/2nd Axl antibody mixture was made (37.5 μg/mL 1st/100 μg/mL 2nd) in starvation medium and nutated at 4° C. with thorough mixing for 1-2 hours for clustering. The resulting mix was warmed to 37° C. 50 μL of 5× Axl 1st/2nd of antibody cluster was added to the cells and the cells were incubated at 37° C. for 5 min.
After 5 minutes stimulation, the plate was flicked to remove medium and the plate was tapped onto paper towels. Formaldehyde (4.0% in PBS, 100 μL) was added to fix the cells and the cells were incubated at ambient temperature for 20 min without shaking.
The cells were washed with a plate washer buffer to remove the formaldehyde solution. The plate was flicked to removed excess wash buffer and tapped onto paper towels. Quenching buffer (100 μL) was added to each well and the cells were incubated at ambient temperature for 20 minutes without shaking.
The cells were washed with a plate washer buffer to remove the quenching buffer. Blocking buffer (100 μL) was added and the cells were incubated at ambient temperature for at least an hour with gentle shaking.
The cells were washed with a plate washer buffer and diluted primary antibody (50 μL) was added to each well (blocking buffer was added to the negative control wells instead). The plates were incubated overnight at 4° C. with gentle shaking.
The wash buffer was removed, diluted secondary antibody (100 μL) was added, and the cells were incubated at ambient temperature for 1 hour with gentle shaking. […]

Structure (SMILES)	IC50 [nM]
Cc1cccc(NC(=O)n2nc(Nc3ccc(OCCN4CCCC4)cc3)nc2N)c1 [compound 31, 5-amino-N-(3-methylphenyl)-3-[4-[2-(pyrrolidin-1-yl)ethoxy]phenylamino]-1H-1,2,4-triazole-1-carboxamide]	< 1000
COc1cc(NC(=O)n2nc(Nc3ccc(OCCN4CCCC4)cc3)nc2N)cc(OC)c1 [compound 34, 5-amino-N-(3,5-(dimethoxy)phenyl)-3-[4-[2-(pyrrolidin-1-yl)ethoxy]phenylamino]-1H-1,2,4-triazole-1-carboxamide]	< 1000
Nc1nc(Nc2ccc(OCCN3CCCCC3)cc2)nn1C(=O)Nc1ccc2c(c1)OCO2 [compound 35, 5-amino-N-(1,3-benzodioxol-5-yl)-3-[4-[2-(piperidin-1-yl)ethoxy]phenylamino]-1H-1,2,4-triazole-1-carboxamide]	1000 to 10000
Nc1nc(Nc2ccc(OCCN3CCCC3)cc2)nn1C(=O)Nc1ccc2c(c1)OCO2 [compound 36, 5-amino-N-(1,3-benzodioxol-5-yl)-3-[4-[2-(pyrrolidin-1-yl)ethoxy]phenylamino]-1H-1,2,4-triazole-1-carboxamide]	1000 to 10000
Cc1ccc(NC(=O)n2nc(Nc3ccc(OCCN4CCCC4)cc3)nc2N)cc1 [compound 37, 5-amino-N-(4-methylphenyl)-3-[4-[2-(pyrrolidin-1-yl)ethoxy]phenylamino]-1H-1,2,4-triazole-1-carboxamide]	1000 to 10000
Cc1ccc(NC(=O)n2nc(Nc3ccc(OCCN4CCCCC4)cc3)nc2N)cc1 [compound 39, 5-amino-N-(4-methylphenyl)-3-[4-[2-(piperidin-1-yl)ethoxy]phenylamino]-1H-1,2,4-triazole-1-carboxamide]	1000 to 10000
CC(C)c1ccc(NC(=O)n2nc(Nc3ccc(OCCN4CCCCC4)cc3)nc2N)cc1 [compound 41, 5-amino-N-(4-(iso-propyl)phenyl)-3-[4-[2-(piperidin-1-yl)ethoxy]phenylamino]-1H-1,2,4-triazole-1-carboxamide]	1000 to 10000
Nc1nc(Nc2ccc(OCCN3CCCCC3)cc2)nn1C(=O)NC1CCCCC1 [compound 42, 5-amino-N-cyclohexyl-3-[4-[2-(piperidin-1-yl)ethoxy]phenylamino]-1H-1,2,4-triazole-1-carboxamide]	1000 to 10000

Results, then the molecule that gave them:

IC50 [nM]	Structure (SMILES)
< 1000	Cc1cccc(NC(=O)n2nc(Nc3ccc(OCCN4CCCCC4)cc3)nc2N)c1 [compound 29, 5-amino-N-(3-methylphenyl)-3-[4-[2-(piperidin-1-yl)ethoxy]phenylamino]-1H-1,2,4-triazole-1-carboxamide]
< 1000	COc1cccc(NC(=O)n2nc(Nc3ccc(OCCN4CCCCC4)cc3)nc2N)c1 [compound 30, 5-amino-N-(3-methoxyphenyl)-3-[4-[2-(piperidin-1-yl)ethoxy]phenylamino]-1H-1,2,4-triazole-1-carboxamide]
< 1000	COc1cccc(NC(=O)n2nc(Nc3ccc(OCCN4CCCC4)cc3)nc2N)c1 [compound 32, 5-amino-N-(3-methoxyphenyl)-3-[4-[2-(pyrrolidin-1-yl)ethoxy]phenylamino]-1H-1,2,4-triazole-1-carboxamide]
< 1000	COc1cc(NC(=O)n2nc(Nc3ccc(OCCN4CCCCC4)cc3)nc2N)cc(OC)c1 [compound 33, 5-amino-N-(3,5-(dimethoxy)phenyl)-3-[4-[2-(piperidin-1-yl)ethoxy]phenylamino]-1H-1,2,4-triazole-1-carboxamide]
1000 to 10000	Cc1ccc(NC(=O)n2nc(Nc3ccc(OCCN4CCCCC4)cc3)nc2N)cc1C [compound 38, 5-amino-N-(3,4-(dimethyl)phenyl)-3-[4-[2-(piperidin-1-yl)ethoxy]phenylamino]-1H-1,2,4-triazole-1-carboxamide]
1000 to 10000	COc1ccc(NC(=O)n2nc(Nc3ccc(OCCN4CCCCC4)cc3)nc2N)cc1 [compound 40, 5-amino-N-(4-(methoxy)phenyl)-3-[4-[2-(piperidin-1-yl)ethoxy]phenylamino]-1H-1,2,4-triazole-1-carboxamide]
1000 to 10000	COc1ccc(NC(=O)n2nc(Nc3ccc(OCCN4CCCCC4)cc3)nc2N)cc1OC [compound 43, 5-amino-N-(3,4-(dimethoxy)phenyl)-3-[4-[2-(piperidin-1-yl)ethoxy]phenylamino]-1H-1,2,4-triazole-1-carboxamide]

Same assay, conditions: inhibition of Axl activity, Table 1

IC50 [nM]	Structure (SMILES)
> 20000	Cc1ccc(C(=O)n2nc(Nc3ccc(O)cc3)nc2N)cc1 [(Ia-4), 5-amino-3-[4-(hydroxy)phenylamino]-1-(4-methylphenyl)carbonyl-1H-1,2,4-triazole]
> 20000	Cc1ccccc1C(=O)n1nc(Nc2cccc(O)c2)nc1N [(Ia-6), 5-amino-3-[3-(hydroxy)phenylamino]-1-(2-(methyl)phenyl)carbonyl-1H-1,2,4-triazole]
1000 to 10000	Cc1cccc(C(=O)n2nc(Nc3cccc(O)c3)nc2N)c1 [(Ia-7), 5-amino-3-[3-(hydroxy)phenylamino]-1-(3-(methyl)phenyl)carbonyl-1H-1,2,4-triazole]
10000 to 20000	Cc1ccc(C(=O)n2nc(Nc3cccc(O)c3)nc2N)cc1 [(Ia-15), 5-amino-3-[3-(hydroxy)phenylamino]-1-(4-(methyl)phenyl)carbonyl-1H-1,2,4-triazole]
1000 to 10000	CC(C)Oc1ccc(C(=O)n2nc(Nc3cccc(OCC#N)c3)nc2N)cc1 [(Ia-21), 5-amino-3-[3-(cyanomethoxy)phenylamino]-1-(4-(iso-propoxy)phenyl)carbonyl-1H-1,2,4-triazole]
> 20000	Nc1nc(Nc2cccc(OCCN3CCOCC3)c2)nn1C(=O)c1ccccc1 [(Ia-26), 5-amino-3-[3-[2-(morpholin-4-yl)ethoxy]phenylamino]-1-phenylcarbonyl-1H-1,2,4-triazole, hydrogen chloride salt]

Same assay, conditions: inhibition of Axl activity, phospho-Akt in-cell Western assay; Table 1

IC50 [nM]	Structure (SMILES)
< 1000	CC(C)Oc1ccc(C(=O)n2nc(Nc3ccc(OCCN4CCCC4)cc3)nc2N)cc1 [(Ia-2), 5-amino-1-(4-(iso-propoxy)phenyl)carbonyl-3-[4-[2-(pyrrolidin-1-yl)ethoxy]phenylamino]-1H-1,2,4-triazole]
